From paper PMC12196235, “Enhancing the Pharmacological Properties of Triterpenes Through Acetylation: An Anticancer and Antioxidant Perspective” (Molecules, 2025)
Several values for one entry are separate records, joined by “and”; a condition that tells them apart may be missing. Equal values may be shown once.

What was measured:
[1] = tested on: SW-707 (human colon carcinoma); conditions: ref 49, cited from earlier work
[2] = tested on: HPGBM (human glioblastoma multiforme); conditions: ref 47; read-out: anticancer IC50 (HPGBM); cited from earlier work
[3] = tested on: HPOC (human ovarian carcinoma); conditions: ref 47; read-out: anticancer IC50 (HPOC); cited from earlier work
[4] = tested on: HT-29 (human colorectal adenocarcinoma); conditions: ref 47; read-out: anticancer IC50 (HT-29); cited from earlier work
[5] = tested on: SK-N-AS (human neuroblastoma); conditions: ref 47; read-out: anticancer IC50 (SK-N-AS); cited from earlier work
[6] = tested on: SFV (Semliki Forest virus); set-up: method as in PMID 19839605; conditions: ref 43; read-out: antiviral IC50 (SFV); cited from earlier work
[7] = tested on: HeLa (human cervical epithelioid carcinoma); assay: MTT assay, HeLa; type: cell-based
Procedure, shortened: (§1)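 MTT viability assay; formazan signal taken as proportional to live cells. HDF were kept in Fibroblast Basal Medium, HeLa in DMEM, MCF-7/A-549 in RPMI 1640.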

[8] = tested on: PC-3 (human prostate carcinoma); assay: MTT assay, PC-3; type: cell-based
DPPH antioxidant assay = conditions: calculated from Trolox standard curve
Method: The results are presented as % inhibition of the copper(II) ions and Trolox equivalent calculated from the standard curve (Figure 9) and as % inhibition of the DPPH radical and Trolox equivalent, calculated from the standard curve (Figure 10).
The CUPRAC reagent (7.5 mM ethanolic 96% neocuproine solution, 10 mM CuCl2 × H2O solution and an ammonium acetate buffer of pH 7.0) and DPPH reagent (2,2-diphenyl-1-picrylhydrazyl 0.2 mM solution) were applied.
The CUPRAC method measures the reducing power of a sample by quantifying its ability to convert the Cu-neocuproine reagent complex to the Cu(I) form. In contrast, the DPPH assay relies on the ability of an antioxidant to donate a hydrogen atom or an electron to the stable DPPH radical, resulting in its reduction and subsequent color change. The results are presented as % inhibition of the copper(II) ions and Trolox equivalent calculated from the standard curve (Figure 9) and as % inhibition of the DPPH radical and Trolox equivalent, calculated from the standard curve (Figure 10). The spectroscopic detection in CUPRAC and DPPH assays was conducted with Synergy H1 Multi-Mode Microplate Reader (BioTek Instruments, Inc., Winooski, VT, USA). The details of the experiments are given in [102].

CUPRAC antioxidant assay = conditions: calculated from Trolox standard curve
Procedure, shortened: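 The CUPRAC reagent was made from 7.5 mM neocuproine, 10 mM CuCl2 and ammonium acetate buffer pH 7.0; the DPPH reagent was a 0.2 mM solution. Both were read spectrophotometrically in plates. Activity is given as % inhibition and as Trolox equivalents from standard curves.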

[9] = tested on: MCF-7 (human breast carcinoma); assay: MTT assay, MCF-7; type: cell-based
Procedure, shortened: as §1

[10] = tested on: SGC7901 (human gastric carcinoma); conditions: ref 48, cited from earlier work
[11] = tested on: A-549 (human lung carcinoma); conditions: ref 47; read-out: anticancer IC50 (A-549); cited from earlier work
[12] = tested on: KB (human oral squamous carcinoma); assay: MTT assay, KB; type: cell-based
[13] = tested on: P-388 (murine lymphocytic leukemia); conditions: ref 49, cited from earlier work

In the case of `C=C(C)[C@@H]1CC[C@]2(CO)CC[C@]3(C)[C@H](CC[C@@H]4[C@@]5(C)CC[C@H](O)C(C)(C)[C@@H]5CC[C@]43C)[C@@H]12` [5a, betulin], the “anticancer IC50 (SW-707)” value [1] is listed as 22.9 µg/mL, the IC50 ([1]; read-out: anticancer IC50 (SW-707)) is listed as 51.7 µM and the IC50 [2] is listed as 3.4 µM. The IC50 [3] was 2.8 µM, the IC50 [4] was 4.3 µM and the IC50 [5] was 2.5 µM. For the same molecule, the IC50 [6] was 45.5 µM, the IC50 ([7]; Homo sapiens, MTT assay, HeLa, read-out: IC50 (±SD), HeLa) was 18.3 µM and the “Selectivity index (SI), HeLa” value ([7]; IC50 HDF / IC50 HeLa) was 0.86. The IC50 ([8]; Homo sapiens, MTT assay, PC-3, read-out: IC50 (±SD), PC-3) was 6.22 µM, the “Selectivity index (SI), PC-3” value ([8]; IC50 HDF / IC50 PC-3) was 2.54 and the “Trolox Equivalent, DPPH Assay” value (DPPH antioxidant assay) was 0.01077 mg/mL and 0.01077 ± 0.000446 mg/mL. For the same molecule, the “Trolox Equivalent, CUPRAC Assay” value (CUPRAC antioxidant assay) was 0.299 mg/mL and 0.299 ± 0.00663 mg/mL, the IC50 ([9]; Homo sapiens, MCF7, MTT assay, MCF-7, read-out: IC50 (±SD), MCF-7) was 18.1 µM and the “Selectivity index (SI), MCF-7” value ([9]; IC50 HDF / IC50 MCF-7) was 0.87. The “anticancer IC50 (SGC7901)” value [10] was 13 µg/mL, the IC50 ([10]; read-out: anticancer IC50 (SGC7901)) was 29.4 µM and the IC50 [11] was 7.4 µM. For the same molecule, the IC50 ([12]; Homo sapiens, MTT assay, KB) was 19.7 µM, the “Selectivity index (SI), KB” value ([12]; IC50 HDF / IC50 KB) was 0.80 and the “anticancer IC50 (P-388)” value [13] was 5.5 µg/mL. The IC50 ([13]; read-out: anticancer IC50 (P-388)) was 12.4 µM.
